In ChEMBL document CHEMBL1201862, “PubChem BioAssay data set” (2004):
Structures can show the parent of a compound that is named as a salt.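 Each compound was tested at five concentrations against cells in 96-well plates for 48 hours. Abbreviation: GI50, concentration required for 50% inhibition of growth.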 Active and inactive are the calls of the source. Cut-off read from the data, not from the text of the source: active = GI50 up to about 1.1 µM and inactive = higher.

Columns and labels:
Experiment in all cases: NCI tumour cell line growth inhibition, 48 h
[1] = test system: NCI-H23
[2] = test system: LOX IMVI
[3] = test system: SR
[4] = test system: SNB-75
[5] = test system: DMS-273
[6] = test system: SF-268
[7] = test system: M19-MEL
[8] = test system: RPMI-8226
[9] = test system: DLD-1
[10] = test system: KM12
[11] = test system: HCT-15
[12] = test system: RXF 393
[13] = test system: HOP-62
[14] = test system: 786-0
[15] = test system: A549
[16] = test system: NCI-H460
[17] = test system: T47D
[18] = test system: BT-549
[19] = test system: Hs-578T
[20] = test system: MDA-MB-231

Row | Structure (SMILES) | GI50 [1] | GI50 [2] | GI50 [3] | GI50 [4] | GI50 [5] | GI50 [6] | GI50 [7] | GI50 [8] | GI50 [9] | GI50 [10] | GI50 [11] [µM] | GI50 [12] | GI50 [13] | GI50 [14] | GI50 [15] | GI50 [16] | GI50 [17] | GI50 [18] | GI50 [19] | GI50 [20]
1 | C1OC1C1CO1 (configuration not stated) | 18.1 µM (inactive) | 21.1 µM (inactive) | 3.88 µM (inactive) | 14.6 µM (inactive) | 10.4 µM (inactive) | 6.43 µM (inactive) | 58.9 µM (inactive) | > 100 µM (inactive) | > 100 µM (inactive) | > 100 µM (inactive) | > 100 | 48.4 µM (inactive) | 17.3 µM (inactive) | 24.2 µM (inactive) | 30.1 µM (inactive) |  |  |  |  | 
2 | Cc1ccc(C)c(NC(=O)CC2C(=O)Nc3ccccc3S2(=O)=O)c1 (configuration not stated) | 61.1 µM (inactive) | 51.3 µM (inactive) | 61 µM (inactive) | 21.5 µM (inactive) | 28.1 µM (inactive) | 42.7 µM (inactive) | 63 µM (inactive) | 36.6 µM (inactive) | > 100 µM (inactive) |  | 87.9 | 27.9 µM (inactive) |  | 22.8 µM (inactive) | > 100 µM (inactive) | > 100 µM (inactive) |  |  |  | 
3 | O=[N+]([O-])c1ccc2nc(/C(=N/Nc3ccccc3)C(O)c3ccco3)c(O)nc2c1 (configuration not stated) |  | 72.4 µM (inactive) | 55.2 µM (inactive) | > 100 µM (inactive) | > 100 µM (inactive) | 25.4 µM (inactive) | 73.5 µM (inactive) | 58.3 µM (inactive) | > 100 µM (inactive) | > 100 µM (inactive) | > 100 | 29.5 µM (inactive) | 37.6 µM (inactive) | > 100 µM (inactive) | > 100 µM (inactive) | > 100 µM (inactive) |  |  |  | 
4 | CNCc1cc(OC)ccc1-c1ccc(OC)c(OC)c1OC | > 100 µM (inactive) | > 96.8 µM (inactive) | > 100 µM (inactive) | 44.6 µM (inactive) | > 100 µM (inactive) | > 100 µM (inactive) | > 100 µM (inactive) | > 100 µM (inactive) | > 100 µM (inactive) | > 85.9 µM (inactive) | > 100 | 69.7 µM (inactive) | > 100 µM (inactive) | > 100 µM (inactive) | > 100 µM (inactive) | > 92 µM (inactive) |  |  |  | 
5 | CC#CC#C/C=C1\C=CC2(OC=CC2O)O1 (configuration not stated) | > 20.3 µM (inactive) | 11.9 µM (inactive) | > 12.7 µM (inactive) | > 19.1 µM (inactive) | > 23.3 µM (inactive) | > 23.3 µM (inactive) | 15.3 µM (inactive) | 13.4 µM (inactive) | 8.93 µM (inactive) | 3.32 µM (inactive) | 7.4 | 8.55 µM (inactive) | > 23.3 µM (inactive) | > 16 µM (inactive) | 13.1 µM (inactive) | > 23.3 µM (inactive) |  |  |  | 
6 | N[C@H](COCc1ccccc1)c1ccccc1 | 23 µM (inactive) | 29.3 µM (inactive) | 23.3 µM (inactive) | 20 µM (inactive) | 23.1 µM (inactive) | 42.1 µM (inactive) | 25 µM (inactive) | 13.1 µM (inactive) | 24.9 µM (inactive) | 27.4 µM (inactive) | > 50.5 | 27.3 µM (inactive) | > 46.5 µM (inactive) | 29.3 µM (inactive) | 33.5 µM (inactive) | 22.8 µM (inactive) |  |  |  | 
7 | C(=C1/CCCCC([n+]2ccccc2)=N1)/c1ccccc1 | > 100 µM (inactive) | > 100 µM (inactive) | > 100 µM (inactive) | > 100 µM (inactive) | > 100 µM (inactive) | > 100 µM (inactive) | > 100 µM (inactive) | > 100 µM (inactive) | > 100 µM (inactive) |  | > 100 | > 100 µM (inactive) | > 100 µM (inactive) | > 100 µM (inactive) | > 100 µM (inactive) | > 100 µM (inactive) |  |  |  | 
8 | Cc1cccc(C)c1NC(=O)C(=O)C(C#N)c1ccccc1Cl (configuration not stated) | > 100 µM (inactive) |  | > 100 µM (inactive) | > 100 µM (inactive) | > 100 µM (inactive) | > 100 µM (inactive) | > 100 µM (inactive) | > 100 µM (inactive) | > 100 µM (inactive) | > 100 µM (inactive) | > 100 | > 100 µM (inactive) | > 100 µM (inactive) | > 100 µM (inactive) | > 100 µM (inactive) | > 100 µM (inactive) |  |  |  | 
9 | COc1ccc(C[C@H](N)C(=O)NC2C(CO)OC(n3cnc4c(N(C)C)ncnc43)C2O)cc1 (some centres not stated) | 0.161 µM (active) | 0.112 µM (active) | 0.138 µM (active) | 0.0807 µM (active) | 0.258 µM (active) | 0.354 µM (active) | 0.296 µM (active) | 0.22 µM (active) | 1.11 µM (active) | 0.262 µM (active) | 2.86 | 0.261 µM (active) | 0.427 µM (active) | 0.695 µM (active) | 0.492 µM (active) | 0.255 µM (active) |  |  |  | 
10 | COc1cc2ccnc3c2c(c1OC)-c1coc(SC)c1-3 |  | 82 µM (inactive) | 40.2 µM (inactive) | 19.7 µM (inactive) | 60.8 µM (inactive) | 92 µM (inactive) | > 100 µM (inactive) | 13 µM (inactive) | 95.1 µM (inactive) | > 100 µM (inactive) | > 100 | 4.67 µM (inactive) | 54.8 µM (inactive) | 57 µM (inactive) | > 100 µM (inactive) | 97.3 µM (inactive) |  |  |  | 
11 | CCc1cccc(C(C)C)c1NC(=O)C(=O)C(Cc1nc2ccccc2nc1O)C(=O)OC (configuration not stated) | > 100 µM (inactive) | 45 µM (inactive) | 38.5 µM (inactive) | 65.6 µM (inactive) | 61.4 µM (inactive) | 67.9 µM (inactive) | > 100 µM (inactive) | 39.2 µM (inactive) | > 100 µM (inactive) | > 100 µM (inactive) | > 100 | > 100 µM (inactive) | > 100 µM (inactive) | > 100 µM (inactive) | > 100 µM (inactive) | > 100 µM (inactive) |  |  |  | 
12 | O=C1c2ccccc2C(=O)c2c(O)c(NCCNCCO)cc(O)c21 | 3.77 µM (inactive) | 3.73 µM (inactive) | 2.2 µM (inactive) | 4.52 µM (inactive) | 3.81 µM (inactive) | 4.29 µM (inactive) | 3.62 µM (inactive) | 3.88 µM (inactive) | 3.13 µM (inactive) | 3.72 µM (inactive) | 3.64 | 4.74 µM (inactive) | 3.93 µM (inactive) | 3.33 µM (inactive) | 3.55 µM (inactive) | 3.34 µM (inactive) |  |  |  | 
13 | Clc1ccc2nc(-c3ccccc3)nc(Cl)c2c1 | 69.2 µM (inactive) |  | > 100 µM (inactive) | 22.1 µM (inactive) | 55.5 µM (inactive) | 52.8 µM (inactive) | 58.2 µM (inactive) | > 100 µM (inactive) | 60.1 µM (inactive) | > 100 µM (inactive) | > 100 | 26.1 µM (inactive) | 23.9 µM (inactive) | 33 µM (inactive) | 50.6 µM (inactive) | 87.9 µM (inactive) |  |  |  | 
14 | O=C(NCCCCCCNC(=O)n1cc(F)c(=O)[nH]c1=O)NCCCOCCOCCOCCOCCOCCOCCOCCOCCOCCOCCOCCOCCOCCOCCOCCOCCOCCOCCOCCOCCOCCCNC(=O)C(O)C(O)C(OC1OC(CO)C(O)C(O)C1O)C(O)CO (configuration not stated) | 22.5 µM (inactive) | 18.9 µM (inactive) | 16 µM (inactive) | 16.4 µM (inactive) | 19.8 µM (inactive) | 75.5 µM (inactive) | 64.3 µM (inactive) | 17 µM (inactive) | 22.6 µM (inactive) | 19.6 µM (inactive) | 17.5 | 80.9 µM (inactive) | 20.6 µM (inactive) | 17.8 µM (inactive) | 7.33 µM (inactive) | 3.58 µM (inactive) | 85.7 µM (inactive) | > 100 µM (inactive) | 69.2 µM (inactive) | > 71.4 µM (inactive)
15 | C=CC[C@H](C[C@H](C[C@H](C[C@H](C[C@H](C[C@H](C[C@H](C[C@H](C[C@H](C[C@H](CCCCC)OC)OC)OC)OC)OC)OC)OC)OC)OC)OC | 98.6 µM (inactive) | > 100 µM (inactive) | 36.6 µM (inactive) | 58.1 µM (inactive) | > 100 µM (inactive) | > 100 µM (inactive) | > 100 µM (inactive) | 52.4 µM (inactive) | > 100 µM (inactive) | > 100 µM (inactive) |  | 66.4 µM (inactive) | > 100 µM (inactive) | > 100 µM (inactive) | > 100 µM (inactive) | > 100 µM (inactive) |  |  |  | 
16 | N=c1ccn2c(n1)O[C@H]1[C@H](O)[C@@H](CO)O[C@H]12 [ANCITABINE HYDROCHLORIDE] | 0.406 µM (active) | 0.347 µM (active) | 0.183 µM (active) | 532 µM (inactive) | 2.34 µM (inactive) | 7.05 µM (inactive) | 7.21 µM (inactive) | 141 µM (inactive) | 652 µM (inactive) |  |  | 79.8 µM (inactive) | 0.292 µM (active) | 0.57 µM (active) | 0.198 µM (active) | 0.154 µM (active) | 213 µM (inactive) | > 1000 µM (inactive) | > 1000 µM (inactive) | 31.7 µM (inactive)
17 | COc1c(O)c2c(c3cc(C(=O)N4CCc5c4c(O)c(OC)c4[nH]c(C(=O)N6CC7CC78C6=CC(=O)c6[nH]cc(C)c68)cc54)[nH]c13)CCN2C(N)=O (configuration not stated) [CC-1065] | 0.000927 µM (active) | 0.000895 µM (active) | 0.00914 µM (active) | 0.00356 µM (active) | 0.00142 µM (active) | 0.00259 µM (active) | 0.0048 µM (active) | 0.027 µM (active) | 0.00103 µM (active) | 0.003 µM (active) | 0.0149 | 0.188 µM (active) |  | 0.000381 µM (active) | 0.000232 µM (active) | 0.000175 µM (active) | 0.356 µM (active) | 1.04 µM (active) | 0.294 µM (active) | 0.486 µM (active)
